Series [1] relates to larvae of the mustard beetle (Phaedon cochleariae). Put plainly: Phaedon larvae test. Type of series: in vivo. The settings on record: cabbage leaves (Brassica oleracea) dipped into preparation of active compound; result in words. How it is done: (§1) Phaedon larvae test • Solvent: 31 parts by weight of dimethylformamide • Emulsifier: I part by weight of alkylaryl polyglycol ether To produce a suitable preparation of active compound, 1 part by weight of active compound is mixed with the stated amounts of solvent and emulsifier, and the concentrate is diluted with emulsifier-containing water to the desired concentration. Cabbage leaves (Brassica oleracea) are treated by being dipped into the preparation of active compound of the desired concentration and populated with larvae of the mustard beetle (Phaedon cochleariae) while the leaves are still moist. After the desired period of time, the kill in % is determined. 100% means that all beetle larvae have been killed; 0% means that none of the beetle larvae have been killed.

In series [2] the test system is common spider mite (Tetranychus urticae). Briefly: Tetranychus test (OP resistent/dip treatment). Type of series: in vivo. The settings on record: bean plants (Phaseolus vulgaris) infested by all stages, dip treatment, OP resistent; result in words. How it is done:
Tetranychus test (OP resistent/dip treatment) • Solvent: 30 parts by weight of dimethylformamide • Emulsifier: 1 part by weight of alkylaryl polyglycol ether To produce a suitable preparation of active compound, 1 part by weight of active compound is mixed with the stated amounts of solvent and emulsifier, and the concentrate is diluted with emulsifier-containing water to the desired concentration. Bean plants (Phaseolus vulgaris) which are heavily infested by all stages of the common spider mite (Tetranychus urticae) are dipped into a preparation of active compound of the desired concentration. After the desired period of time, the kill in % is determined. 100% means that all spider mites have been killed; 0% means that none of the spider mites have been killed.

The test system of series [3] is larva (L3) of the army worm (Spodoptera frugiperda). Put plainly: Spodoptera frugiperda test. Type of series: in vivo. Conditions: preparation pipetted onto synthetic feed, result in words. How it is done: Spodoptera frugiperda test • Solvent: 31 parts by weight of dimethylformamide • Emulsifier: 1 part by weight of alkylaryl polyglycol ether To produce a suitable preparation of active compound, 1 part by weight of active compound is mixed with the stated amount of solvent and the stated amount of emulsifier, and the concentrate is diluted with emulsifier-containing water to the desired concentration. A stated amount of the preparation of active compound of the desired concentration is pipetted onto a standardized amount of synthetic feed. In 6 repetitions, in each case one larva (L3) of the army worm (Spodoptera frugiperda) is placed on the feed. After the desired period of time, the kill in % is determined. 100% means that all animals have been killed; 0% means that none of the animals have been killed.

Series [4] deals with Heliothis virescens caterpillars. Briefly: Heliothis virescens test. Type of series: in vivo. The settings on record: soya bean shoots (Glycine max) dipped; result in words. How it is done: as §1, with “Heliothis virescens” for “Phaedon larvae”, “30” for “31”, “1” for “I”, “Soya bean shoots (Glycine max)” for “Cabbage leaves (Brassica oleracea)”, “Heliothis virescens caterpillars” for “larvae of the mustard beetle (Phaedon cochleariae)”, “caterpillars” for “beetle larvae”

As a reminder, the melting point is the temperature of the solid-liquid transition. Molecule `CCC1COC(C)/C(=C(\C#N)C(=O)c2ccc(Cl)cc2)N1` (centres unmarked) [I-1-a-1, 3-(4-chlorophenyl)-2-(5-ethyl-2-methyl-1,4-oxazinon-3-ylidene)-3-oxopropionitrile] had a melting point of 136 °C.
Still for that read-out and setting: the same measure for `CC1OCCN/C1=C(/C#N)C(=S)c1cc(C(F)(F)F)cc(C(F)(F)F)c1` (centres unmarked) [I-1-a-2, 3-[3,5-bis(trifluoromethyl)phenyl]-2-(2-methyl-1,4-oxazinan-3-ylidene)-3-thioxopropionitrile]: 195 °C; for `N#CC(C(=O)c1ccc(Cl)cc1)=C1COCCN1` [I-1-a-5, 3-(4-chlorophenyl)-2-(1,4-oxazinan-3-ylidene)-3-oxo-propionitrile]: 192 °C.
In the case of `N#CC(C(=O)c1cc(C(F)(F)F)cc(C(F)(F)F)c1)=C1CSCCN1` [I-1-a-10, 3-[3,5-bis(trifluoromethyl)phenyl]-2-(1,4-thiazinan-3-ylidene)-3-oxo-propionitrile], the melting point is 182 °C. The “activity (kill in %) against Phaedon cochleariae larvae” value in series [1] is “good activity”. The “activity (kill in %) against Tetranychus urticae” value in series [2] is given as “good activity”.
Consider `CC1OCCNC1=C(C#N)C(=O)c1cc(C(F)(F)F)cc(C(F)(F)F)c1` (centres unmarked) [I-1-a-14, 3-[3,5-bis(trifluoromethyl)phenyl]-2-(2-methyl-1,4-oxazinan-3-ylidene)-3-oxopropionitrile], for which the melting point worked out at 142 °C. In addition, in series [3], the “activity (kill in %) against Spodoptera frugiperda larvae” value was “good activity”. The “activity (kill in %) against Heliothis virescens caterpillars” value in series [4] is on record as “good activity”.
As for `N#C/C(C(=O)c1cc(C(F)(F)F)cc(C(F)(F)F)c1)=C1\CS(=O)(=O)CCN1` [I-1-a-15, 3-[3,5-bis(trifluoromethyl)phenyl]-2-(1,1-dioxo-Iλ^6,4-thiazinan-3-ylidene)-3-oxo-propionitrile], the melting point lay within 224 to 226 °C.
Regarding `CC1OCCN/C1=C(/C#N)C(=O)c1cc(-c2ccc(Cl)cc2)cc(C(F)(F)F)c1` (centres unmarked) [I-1-a-37, 3-[3-(4-chlorophenyl)-5-trifluoromethylphenyl]-2-(2-methyl-1,4-oxazinon-3-ylidene)-3-oxopropionitrile], the melting point came out at 119 °C.

(Values after patent US7186829B1, “Aryl-substituted heterocyclic enaminones” (Bayer Aktiengesellschaft, priority 1999, dated 2007).)
